# “And” between values parts separate entries of the source, which are not always exact repeats. Equal entries are not always repeated.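 Exposure lasted 48 hours, with cells grown in 96-well plates and compounds tested at five concentrations. The concentration for 50% growth inhibition is given as GI50. TGI is the concentration that stops growth completely.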
# Assays:
# Test in all cases: NCI anticancer screen, dose series, 48 h
# [1] = system: 786-0 renal
# [2] = system: A498 renal
# [3] = system: A549 NSCLC
# [4] = system: ACHN renal
# [5] = system: BT-549 breast
# [6] = system: CAKI-1 renal
# [7] = system: CCRF-CEM leukemia
# [8] = system: COLO 205 colon
# [9] = system: DU-145 prostate
# [10] = system: EKVX NSCLC
# [11] = system: HCC-2998 colon
# [12] = system: HCT-116 colon
# [13] = system: HCT-15 colon
# [14] = system: HL-60(TB) leukemia
# [15] = system: HOP-62 NSCLC
# [16] = system: HOP-92 NSCLC
# [17] = system: HS 578T breast
# [18] = system: HT29 colon
# [19] = system: IGROV1 ovarian
# [20] = system: K-562 leukemia
# [21] = system: KM12 colon
# [22] = system: LOX IMVI melanoma
# [23] = system: M14 melanoma
# [24] = system: MALME-3M melanoma
# [25] = system: MCF7 breast
# [26] = system: MDA-MB-231 breast
# [27] = system: MDA-MB-435
# [28] = system: MOLT-4 leukemia
# [29] = system: NCI-H226 lung
# [30] = system: NCI-H23 lung
# [31] = system: NCI-H460 lung
# [32] = system: NCI-H522 lung
# [33] = system: NCI/ADR-RES ovarian
# [34] = system: OVCAR-3 ovarian
# [35] = system: OVCAR-5 ovarian
# [36] = system: OVCAR-8 ovarian
# [37] = system: PC-3 prostate
# [38] = system: RPMI-8226 leukemia
# [39] = system: RXF 393 renal
# [40] = system: SF-268 CNS
# [41] = system: SF-295 CNS
# [42] = system: SF-539 CNS
# [43] = system: SK-MEL-2 melanoma
# [44] = system: SK-MEL-28 melanoma
# [45] = system: SK-MEL-5 melanoma
# [46] = system: SK-OV-3 ovarian
# [47] = system: SN12C renal
# [48] = system: SNB-19 CNS
# [49] = system: SNB-75 CNS
# [50] = system: SR leukemia
# [51] = system: SW-620 colon
# [52] = system: T-47D breast
# [53] = system: TK-10 renal
# [54] = system: U251 CNS
# [55] = system: UACC-257 melanoma
# [56] = system: UACC-62 melanoma
# [57] = system: UO-31 renal
smiles,measurement,setting,value
CNC(=O)c1cccc(-c2ccc3c(N4CCOC[C@@H]4C)nc(N4CCOC[C@@H]4C)nc3n2)c1,GI50,[1],229 nM and 252 nM
same,TGI,[1],> 32800 nM
same,GI50,[2],18.3 nM and 25.8 nM and < 14.1 nM
same,TGI,[2],82.7 nM and 142 nM and 80.1 nM
same,GI50,[3],124 nM and 242 nM and 142 nM
same,TGI,[3],> 100000 nM and > 10000 nM and 11500 nM
same,GI50,[4],95 nM and 115 nM and 119 nM
same,TGI,[4],> 100000 nM
same,GI50,[5],43.6 nM and 95.3 nM and 61.4 nM
same,TGI,[5],1380 nM and 1080 nM and 648 nM
same,GI50,[6],69.3 nM and 148 nM and 144 nM
same,TGI,[6],1830 nM and > 3360 nM
same,GI50,[7],177 nM and 217 nM and 163 nM
same,TGI,[7],> 100000 nM
same,GI50,[8],64.8 nM and 204 nM and 142 nM
same,GI50,[9],162 nM and 302 nM and 250 nM
same,TGI,[9],> 100000 nM
same,GI50,[10],99.8 nM and 139 nM
same,TGI,[10],765 nM and 2000 nM
same,GI50,[11],221 nM and 430 nM and 182 nM
same,TGI,[11],> 100000 nM and > 10000 nM and 36600 nM
same,GI50,[12],303 nM and 451 nM and 407 nM
same,TGI,[12],> 100000 nM
same,GI50,[13],90.9 nM and 267 nM and 160 nM
same,TGI,[13],> 100000 nM
same,GI50,[14],353 nM and 370 nM and 2910 nM
same,TGI,[14],25200 nM and > 10000 nM and 64100 nM
same,GI50,[15],153 nM and 273 nM and 170 nM
same,TGI,[15],> 100000 nM and > 5180 nM and 10200 nM
same,GI50,[16],18.7 nM and < 13.3 nM
same,TGI,[16],238 nM and 72.8 nM
same,GI50,[17],62.7 nM and 61.8 nM and 116 nM
same,TGI,[17],448 nM and 320 nM and 459 nM
same,GI50,[18],144 nM and 355 nM and 323 nM
same,TGI,[18],> 100000 nM
same,GI50,[19],44.3 nM and 38.1 nM and 22.4 nM
same,GI50,[20],499 nM and 372 nM and 445 nM
same,TGI,[20],> 100000 nM
same,GI50,[21],94.7 nM and 273 nM and 179 nM
same,TGI,[21],> 100000 nM
same,GI50,[22],113 nM and 217 nM and 228 nM
same,TGI,[22],5240 nM and > 4470 nM and > 43900 nM
same,GI50,[23],47 nM and 177 nM and 133 nM
same,TGI,[23],44500 nM and > 6820 nM and 14900 nM
same,GI50,[24],20.1 nM and 35.1 nM and < 20.4 nM
same,TGI,[24],550 nM and 524 nM and 138 nM
same,GI50,[25],29.5 nM and 98 nM and 36.8 nM
same,TGI,[25],5510 nM and > 3460 nM and 9700 nM
same,GI50,[26],181 nM and 168 nM and 184 nM
same,TGI,[26],34300 nM and > 10000 nM and > 64000 nM
same,GI50,[27],92.5 nM and 204 nM and 147 nM
same,TGI,[27],1800 nM and 1340 nM and 1270 nM
same,GI50,[28],101 nM and 146 nM and 214 nM
same,TGI,[28],28900 nM and > 10000 nM and > 44400 nM
same,GI50,[29],43.8 nM and 149 nM and 115 nM
same,TGI,[29],770 nM and 2900 nM and 959 nM
same,GI50,[30],111 nM and 273 nM and 245 nM
same,TGI,[30],> 100000 nM
same,GI50,[31],42.2 nM and 85.3 nM and 53.8 nM
same,TGI,[31],> 100000 nM
same,GI50,[32],50.5 nM and 99.1 nM and 47.9 nM
same,TGI,[32],> 100000 nM
same,GI50,[33],240 nM and 412 nM and 371 nM
same,TGI,[33],3560 nM and 5120 nM and > 25100 nM
same,GI50,[34],59.7 nM and 222 nM and 139 nM
same,GI50,[35],76.5 nM and 122 nM and 73.9 nM
same,TGI,[35],73700 nM and > 4520 nM
same,GI50,[36],162 nM and 313 nM and 164 nM
same,TGI,[36],27700 nM and > 10000 nM and 3420 nM
same,GI50,[37],21.9 nM and 80.9 nM and 38.4 nM
same,GI50,[38],48.6 nM and 47.3 nM and 36.3 nM
same,GI50,[39],48.8 nM and 60 nM and 28 nM
same,TGI,[39],470 nM and 370 nM and 337 nM
same,GI50,[40],65.3 nM and 209 nM and 212 nM
same,TGI,[40],10500 nM and > 6590 nM and > 100000 nM
same,GI50,[41],49.4 nM and 123 nM and 33.6 nM
same,TGI,[41],392 nM and 795 nM and 220 nM
same,GI50,[42],150 nM and 166 nM and 125 nM
same,TGI,[42],1490 nM and 1260 nM and 677 nM
same,GI50,[43],88.9 nM and 216 nM and 215 nM
same,TGI,[43],5470 nM and 1160 nM and 912 nM
same,GI50,[44],41 nM and 123 nM and 40.2 nM
same,TGI,[44],720 nM and 3010 nM and 671 nM
same,GI50,[45],109 nM and 170 nM and 176 nM
same,TGI,[45],718 nM and 990 nM and 2870 nM
same,GI50,[46],33.3 nM and 90.3 nM and 44.6 nM
same,TGI,[46],479 nM and 451 nM and 438 nM
same,GI50,[47],132 nM and 121 nM and 129 nM
same,TGI,[47],> 100000 nM
same,GI50,[48],448 nM and 290 nM
same,TGI,[48],> 93300 nM
same,GI50,[49],27 nM and 117 nM and 31.6 nM
same,TGI,[49],373 nM and 647 nM and 403 nM
same,GI50,[50],249 nM and 133 nM and 104 nM
same,TGI,[50],> 100000 nM
same,GI50,[51],260 nM and 356 nM and 293 nM
same,TGI,[51],> 100000 nM
same,GI50,[52],16.8 nM and 28.7 nM and 18.6 nM
same,TGI,[52],246 nM and 212 nM and 103 nM
same,GI50,[53],61.6 nM and 146 nM and 113 nM
same,TGI,[53],2250 nM and 1630 nM and 1480 nM
same,GI50,[54],236 nM and 422 nM and 176 nM
same,TGI,[54],> 100000 nM
same,GI50,[55],51.8 nM and 188 nM and 58.9 nM
same,TGI,[55],1210 nM and 1690 nM and 487 nM
same,GI50,[56],39.3 nM and 82 nM and 80.2 nM
same,TGI,[56],339 nM and 438 nM and 452 nM
same,GI50,[57],27.8 nM and 60.4 nM and 32.8 nM
